# In ChEMBL document CHEMBL5370550, “Structure-guided optimization of adenosine mimetics as selective and potent inhibitors of coronavirus nsp14 N7-methyltransferases” (Eur J Med Chem, 2023):
# pIC50: −log10 of the molar value. The source made the active and inactive calls. No cut-off for these calls is given here.
# Target: Replicase polyprotein 1ab (Severe acute respiratory syndrome-related coronavirus) (UniProt P0C6X7)
# Settings: dose 5.0 µM, time 30.0 min
row,Compound,inhibition [%]
1,COc1ccc(S(=O)(=O)NC[C@H]2O[C@@H](n3cnc4c(=O)[nH]cnc43)[C@H](O)[C@@H]2O)cc1C#N,98.4
2,CCN(C[C@H]1O[C@@H](n2cnc3c(NC)ncnc32)[C@H](O)[C@@H]1O)S(=O)(=O)c1ccc(C)c([N+](=O)[O-])c1,20.1
3,Cc1ccc(S(=O)(=O)N(C)C[C@H]2O[C@@H](n3cc(C#Cc4ccccc4)c4c(N)ncnc43)[C@H](O)[C@@H]2O)cc1Cl,2.4
4,COc1ccc(S(=O)(=O)N(C)C[C@H]2O[C@@H](n3cc(C#Cc4ccccc4)c4c(N)ncnc43)[C@H](O)[C@@H]2O)cc1[N+](=O)[O-],0.5
5,CNc1ncnc2c1ncn2[C@@H]1O[C@H](CNS(=O)(=O)c2ccc(C)c([N+](=O)[O-])c2)[C@@H](O)[C@H]1O,66.4
6,CNc1ncnc2c1ncn2[C@@H]1O[C@H](CNS(=O)(=O)c2ccc(Br)c([N+](=O)[O-])c2)[C@@H](O)[C@H]1O,54
7,COc1ccc(S(=O)(=O)N(C)C[C@H]2O[C@@H](n3cc(C#Cc4cnc5ccccc5c4)c4c(N)ncnc43)[C@H](O)[C@@H]2O)cc1C#N,1.4

# Target: Replicase polyprotein 1ab (Severe acute respiratory syndrome coronavirus 2) (UniProt P0DTD1)
# Settings: dose 5.0 µM, time 30.0 min, values are per cent of control
row,Compound,residual activity [%]
1,COc1ccc(S(=O)(=O)NC[C@H]2O[C@@H](n3cnc4c(=O)[nH]cnc43)[C@H](O)[C@@H]2O)cc1C#N,86
2,CCN(C[C@H]1O[C@@H](n2cnc3c(NC)ncnc32)[C@H](O)[C@@H]1O)S(=O)(=O)c1ccc(C)c([N+](=O)[O-])c1,10.9
3,Cc1ccc(S(=O)(=O)N(C)C[C@H]2O[C@@H](n3cc(C#Cc4ccccc4)c4c(N)ncnc43)[C@H](O)[C@@H]2O)cc1Cl,7
4,COc1ccc(S(=O)(=O)N(C)C[C@H]2O[C@@H](n3cc(C#Cc4ccccc4)c4c(N)ncnc43)[C@H](O)[C@@H]2O)cc1[N+](=O)[O-],0
5,CNc1ncnc2c1ncn2[C@@H]1O[C@H](CNS(=O)(=O)c2ccc(C)c([N+](=O)[O-])c2)[C@@H](O)[C@H]1O,38.7
6,CNc1ncnc2c1ncn2[C@@H]1O[C@H](CNS(=O)(=O)c2ccc(Br)c([N+](=O)[O-])c2)[C@@H](O)[C@H]1O,33.8
7,COc1ccc(S(=O)(=O)N(C)C[C@H]2O[C@@H](n3cc(C#Cc4cnc5ccccc5c4)c4c(N)ncnc43)[C@H](O)[C@@H]2O)cc1C#N,0

# Target: Nonstructural protein 5 (Dengue virus) (UniProt V5TFZ2)
# Settings: dengue virus type 3; dose 5.0 µM, time 30.0 min
row,Compound,inhibition
1,COc1ccc(S(=O)(=O)NC[C@H]2O[C@@H](n3cnc4c(=O)[nH]cnc43)[C@H](O)[C@@H]2O)cc1C#N,inactive
2,CCN(C[C@H]1O[C@@H](n2cnc3c(NC)ncnc32)[C@H](O)[C@@H]1O)S(=O)(=O)c1ccc(C)c([N+](=O)[O-])c1,97.1%
3,Cc1ccc(S(=O)(=O)N(C)C[C@H]2O[C@@H](n3cc(C#Cc4ccccc4)c4c(N)ncnc43)[C@H](O)[C@@H]2O)cc1Cl,94.8%
4,COc1ccc(S(=O)(=O)N(C)C[C@H]2O[C@@H](n3cc(C#Cc4ccccc4)c4c(N)ncnc43)[C@H](O)[C@@H]2O)cc1[N+](=O)[O-],91.6%
5,CNc1ncnc2c1ncn2[C@@H]1O[C@H](CNS(=O)(=O)c2ccc(C)c([N+](=O)[O-])c2)[C@@H](O)[C@H]1O,76.6%
6,CNc1ncnc2c1ncn2[C@@H]1O[C@H](CNS(=O)(=O)c2ccc(Br)c([N+](=O)[O-])c2)[C@@H](O)[C@H]1O,78.1%

# Target: T1, mRNA cap guanine-N(7) methyltransferase (Homo sapiens, UniProt O43148)
# Settings: dose 5.0 µM, time 30.0 min
# T1 sequence (O43148 whole entry): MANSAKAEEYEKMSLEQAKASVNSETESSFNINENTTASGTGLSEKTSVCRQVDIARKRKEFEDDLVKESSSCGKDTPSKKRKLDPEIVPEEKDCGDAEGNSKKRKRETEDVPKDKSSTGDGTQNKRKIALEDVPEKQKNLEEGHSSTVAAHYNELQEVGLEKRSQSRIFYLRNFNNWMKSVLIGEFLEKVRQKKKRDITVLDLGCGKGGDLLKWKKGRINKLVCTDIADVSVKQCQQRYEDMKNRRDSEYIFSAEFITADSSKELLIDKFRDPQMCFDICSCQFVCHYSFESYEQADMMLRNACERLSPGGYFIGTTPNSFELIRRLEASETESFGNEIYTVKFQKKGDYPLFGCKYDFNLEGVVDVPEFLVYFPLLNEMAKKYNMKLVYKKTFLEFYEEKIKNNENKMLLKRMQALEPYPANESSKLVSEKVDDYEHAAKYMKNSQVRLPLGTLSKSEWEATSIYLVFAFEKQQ
row,Compound,inhibition
1,COc1ccc(S(=O)(=O)NC[C@H]2O[C@@H](n3cnc4c(=O)[nH]cnc43)[C@H](O)[C@@H]2O)cc1C#N,inactive
2,CCN(C[C@H]1O[C@@H](n2cnc3c(NC)ncnc32)[C@H](O)[C@@H]1O)S(=O)(=O)c1ccc(C)c([N+](=O)[O-])c1,inactive
3,Cc1ccc(S(=O)(=O)N(C)C[C@H]2O[C@@H](n3cc(C#Cc4ccccc4)c4c(N)ncnc43)[C@H](O)[C@@H]2O)cc1Cl,inactive
4,COc1ccc(S(=O)(=O)N(C)C[C@H]2O[C@@H](n3cc(C#Cc4ccccc4)c4c(N)ncnc43)[C@H](O)[C@@H]2O)cc1[N+](=O)[O-],inactive
5,CNc1ncnc2c1ncn2[C@@H]1O[C@H](CNS(=O)(=O)c2ccc(C)c([N+](=O)[O-])c2)[C@@H](O)[C@H]1O,66.4%
6,CNc1ncnc2c1ncn2[C@@H]1O[C@H](CNS(=O)(=O)c2ccc(Br)c([N+](=O)[O-])c2)[C@@H](O)[C@H]1O,57%
7,COc1ccc(S(=O)(=O)N(C)C[C@H]2O[C@@H](n3cc(C#Cc4cnc5ccccc5c4)c4c(N)ncnc43)[C@H](O)[C@@H]2O)cc1C#N,53%

# Target: Replicase polyprotein 1ab (Severe acute respiratory syndrome coronavirus 2, UniProt P0DTD1)
# Settings: not given
row,Compound,pIC50
1,CCN(C[C@H]1O[C@@H](n2cnc3c(NC)ncnc32)[C@H](O)[C@@H]1O)S(=O)(=O)c1ccc(C)c([N+](=O)[O-])c1,6.73
2,Cc1ccc(S(=O)(=O)N(C)C[C@H]2O[C@@H](n3cc(C#Cc4ccccc4)c4c(N)ncnc43)[C@H](O)[C@@H]2O)cc1Cl,7.59
3,COc1ccc(S(=O)(=O)N(C)C[C@H]2O[C@@H](n3cc(C#Cc4ccccc4)c4c(N)ncnc43)[C@H](O)[C@@H]2O)cc1[N+](=O)[O-],8.55
4,CNc1ncnc2c1ncn2[C@@H]1O[C@H](CNS(=O)(=O)c2ccc(C)c([N+](=O)[O-])c2)[C@@H](O)[C@H]1O,5.55
5,CNc1ncnc2c1ncn2[C@@H]1O[C@H](CNS(=O)(=O)c2ccc(Br)c([N+](=O)[O-])c2)[C@@H](O)[C@H]1O,5.47
6,COc1ccc(S(=O)(=O)N(C)C[C@H]2O[C@@H](n3cc(C#Cc4cnc5ccccc5c4)c4c(N)ncnc43)[C@H](O)[C@@H]2O)cc1C#N,9.14

# Target: Replicase polyprotein 1ab (Severe acute respiratory syndrome-related coronavirus, UniProt P0C6X7)
# Settings: not given
row,Compound,pIC50
1,COc1ccc(S(=O)(=O)N(C)C[C@H]2O[C@@H](n3cc(C#Cc4cnc5ccccc5c4)c4c(N)ncnc43)[C@H](O)[C@@H]2O)cc1C#N,9.85

# Target: T1, mRNA cap guanine-N(7) methyltransferase
# Settings: not given
row,Compound,pIC50
1,COc1ccc(S(=O)(=O)N(C)C[C@H]2O[C@@H](n3cc(C#Cc4cnc5ccccc5c4)c4c(N)ncnc43)[C@H](O)[C@@H]2O)cc1C#N,3.78

# Target: Nonstructural protein 5 (Dengue virus, UniProt V5TFZ2)
# Parameters: species or system dengue virus type 3
# Settings: not given
row,Compound,IC50
1,COc1ccc(S(=O)(=O)N(C)C[C@H]2O[C@@H](n3cc(C#Cc4cnc5ccccc5c4)c4c(N)ncnc43)[C@H](O)[C@@H]2O)cc1C#N,Not Active

# System: Severe acute respiratory syndrome coronavirus 2
# Settings: time 30.0 min
row,Compound,inhibition
1,COc1ccc(S(=O)(=O)N(C)C[C@H]2O[C@@H](n3cc(C#Cc4cnc5ccccc5c4)c4c(N)ncnc43)[C@H](O)[C@@H]2O)cc1C#N,inactive

# System: not listed separately
# Test: Cytotoxicity against Green monkey VeroE6/TMPRSS2 cells assessed as reduction in cell viability upto 10 uM by CellTiter Blue assay
# Assay type: toxicity, cell-based
# Settings: chlorocebus sabaeus, veroe6/tmprss2, 10 µM
row,Compound,Activity
1,Cc1ccc(S(=O)(=O)N(C)C[C@H]2O[C@@H](n3cc(C#Cc4ccccc4)c4c(N)ncnc43)[C@H](O)[C@@H]2O)cc1Cl,Non-Toxic
2,COc1ccc(S(=O)(=O)N(C)C[C@H]2O[C@@H](n3cc(C#Cc4ccccc4)c4c(N)ncnc43)[C@H](O)[C@@H]2O)cc1[N+](=O)[O-],Non-Toxic
3,COc1ccc(S(=O)(=O)N(C)C[C@H]2O[C@@H](n3cc(C#Cc4cnc5ccccc5c4)c4c(N)ncnc43)[C@H](O)[C@@H]2O)cc1C#N,Non-Toxic

# System: SARS-CoV-2
# Test: Antiviral activity against SARS-CoV-2 B.1 infected in Green monkey VeroE6/TMPRSS2 cells assessed as viral replication inhibition at 10 uM incubated for 2 days by qRT-PCR analysis relative to control
# Assay type: functional
# Settings: Severe acute respiratory syndrome coronavirus 2, time 2.0 day
row,Compound,Activity
1,Cc1ccc(S(=O)(=O)N(C)C[C@H]2O[C@@H](n3cc(C#Cc4ccccc4)c4c(N)ncnc43)[C@H](O)[C@@H]2O)cc1Cl,inactive
2,COc1ccc(S(=O)(=O)N(C)C[C@H]2O[C@@H](n3cc(C#Cc4ccccc4)c4c(N)ncnc43)[C@H](O)[C@@H]2O)cc1[N+](=O)[O-],inactive

# Same assay, conditions: time 2 day
row,Compound,Activity [%]
1,COc1ccc(S(=O)(=O)N(C)C[C@H]2O[C@@H](n3cc(C#Cc4cnc5ccccc5c4)c4c(N)ncnc43)[C@H](O)[C@@H]2O)cc1C#N,50
